Test results from patent publication US9682995B2, “Amino-substituted isothiazoles” (BAYER PHARMA AKTIENGESELLSCHAFT, priority 2013, dated 2017).

Columns and labels:
Experiment in all cases: Kinase Profiling (KINOMEscan)
Format in all cases: binding
[1] = molecular target: 456 kinases (of these 395 non-mutant kinases) (Homo sapiens, UniProt P08581, M1250T); details: MET(M1250T); 10 μM
[2] = molecular target: 456 kinases (of these 395 non-mutant kinases) (Homo sapiens, UniProt Q9BX84); details: TRPM6; 10 μM
[3] = molecular target: 456 kinases (of these 395 non-mutant kinases) (Homo sapiens, UniProt P53667); details: LIMK1; 10 μM
[4] = molecular target: 456 kinases (of these 395 non-mutant kinases) (Homo sapiens, UniProt Q16513); details: PKN2; 10 μM
[5] = molecular target: 456 kinases (of these 395 non-mutant kinases) (Homo sapiens, UniProt Q09013); details: DMPK; 10 μM
[6] = molecular target: 456 kinases (of these 395 non-mutant kinases) (Homo sapiens, UniProt Q8TD08); details: ERK8; 10 μM
[7] = molecular target: 456 kinases (of these 395 non-mutant kinases) (Homo sapiens, UniProt P51955); details: NEK2; 10 μM
[8] = molecular target: 456 kinases (of these 395 non-mutant kinases) (Homo sapiens, UniProt O00141); details: SGK; 10 μM
[9] = molecular target: 456 kinases (of these 395 non-mutant kinases) (Homo sapiens, UniProt Q15835); details: GRK1; 10 μM
[10] = molecular target: 456 kinases (of these 395 non-mutant kinases) (Homo sapiens, UniProt Q9Y6M4); details: CSNK1G3; 10 μM
[11] = molecular target: 456 kinases (of these 395 non-mutant kinases) (Homo sapiens, UniProt P29597); details: 10 μM
[12] = molecular target: 456 kinases (of these 395 non-mutant kinases) (Homo sapiens, UniProt P51813); details: BMX; 10 μM
[13] = molecular target: 456 kinases (of these 395 non-mutant kinases) (Homo sapiens, UniProt O43353); details: RIPK2; 10 μM
[14] = molecular target: 456 kinases (of these 395 non-mutant kinases) (Homo sapiens, UniProt Q15349); details: 10 μM
[15] = molecular target: 456 kinases (of these 395 non-mutant kinases) (Homo sapiens, UniProt O14976); details: GAK; 10 μM
[16] = molecular target: 456 kinases (of these 395 non-mutant kinases) (Homo sapiens, UniProt P45983); details: JNK1; 10 μM
[17] = molecular target: 456 kinases (of these 395 non-mutant kinases) (Homo sapiens, UniProt O43318); details: TAK1; 10 μM
[18] = molecular target: 456 kinases (of these 395 non-mutant kinases) (Homo sapiens, UniProt P78368); details: CSNK1G2; 10 μM
[19] = molecular target: 456 kinases (of these 395 non-mutant kinases) (Homo sapiens, UniProt Q16288); details: TRKC; 10 μM
[20] = molecular target: 456 kinases (of these 395 non-mutant kinases) (Mycobacterium tuberculosis, UniProt P9WI81)
[21] = molecular target: 456 kinases (of these 395 non-mutant kinases) (Homo sapiens, UniProt P36507); details: MEK2; 10 μM
[22] = molecular target: 456 kinases (of these 395 non-mutant kinases) (Homo sapiens, UniProt P00533, L858R/T790M); details: EGFR(L858R,T790M); 10 μM
[23] = molecular target: 456 kinases (of these 395 non-mutant kinases) (Homo sapiens, UniProt P00533, G719C); details: EGFR(G719C); 10 μM
[24] = molecular target: 456 kinases (of these 395 non-mutant kinases) (Homo sapiens, UniProt Q8WTQ7); details: GRK7; 10 μM
[25] = molecular target: 456 kinases (of these 395 non-mutant kinases) (Homo sapiens, UniProt Q8IU85); details: CAMK1D; 10 μM
[26] = molecular target: 456 kinases (of these 395 non-mutant kinases) (Homo sapiens, UniProt Q15418); details: 10 μM
[27] = molecular target: 456 kinases (of these 395 non-mutant kinases) (Homo sapiens, UniProt Q9UQB9); details: AURKC; 10 μM
[28] = molecular target: 456 kinases (of these 395 non-mutant kinases) (Homo sapiens, UniProt Q99640); details: PKMYT1; 10 μM
[29] = molecular target: 456 kinases (of these 395 non-mutant kinases) (Homo sapiens, UniProt P04049); details: RAF1; 10 μM
[30] = molecular target: 456 kinases (of these 395 non-mutant kinases) (Homo sapiens, UniProt P54764); details: EPHA4; 10 μM
[31] = molecular target: 456 kinases (of these 395 non-mutant kinases) (Homo sapiens, UniProt P42336, C420R); details: PIK3CA(C420R); 10 μM

Chain of 456 kinases (of these 395 non-mutant kinases) (Homo sapiens, UniProt Q16288) (Q16288 32-839 limits assumed, change not shown): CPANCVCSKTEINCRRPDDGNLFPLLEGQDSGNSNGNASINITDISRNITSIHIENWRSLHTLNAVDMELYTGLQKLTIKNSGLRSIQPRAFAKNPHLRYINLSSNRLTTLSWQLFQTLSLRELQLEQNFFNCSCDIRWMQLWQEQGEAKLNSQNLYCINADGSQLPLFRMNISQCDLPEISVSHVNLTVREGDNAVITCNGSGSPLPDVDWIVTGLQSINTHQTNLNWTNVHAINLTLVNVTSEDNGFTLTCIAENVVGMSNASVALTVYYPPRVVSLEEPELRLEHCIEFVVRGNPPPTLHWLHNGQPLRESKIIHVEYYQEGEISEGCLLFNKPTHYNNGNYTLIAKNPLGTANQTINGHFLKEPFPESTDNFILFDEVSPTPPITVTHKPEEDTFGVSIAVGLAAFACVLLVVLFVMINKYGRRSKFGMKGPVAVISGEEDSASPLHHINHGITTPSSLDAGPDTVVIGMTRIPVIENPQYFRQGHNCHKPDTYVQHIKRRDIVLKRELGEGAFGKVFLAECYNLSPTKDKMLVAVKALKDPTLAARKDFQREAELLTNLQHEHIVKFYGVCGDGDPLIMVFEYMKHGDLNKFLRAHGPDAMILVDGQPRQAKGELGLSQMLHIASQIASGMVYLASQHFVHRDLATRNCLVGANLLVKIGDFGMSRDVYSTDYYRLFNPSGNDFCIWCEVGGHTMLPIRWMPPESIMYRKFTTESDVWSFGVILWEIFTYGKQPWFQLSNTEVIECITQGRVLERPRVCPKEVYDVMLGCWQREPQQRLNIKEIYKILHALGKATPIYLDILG
Chain of 456 kinases (of these 395 non-mutant kinases) (Homo sapiens, UniProt O14976) (O14976 2-1311 limits assumed, change not shown): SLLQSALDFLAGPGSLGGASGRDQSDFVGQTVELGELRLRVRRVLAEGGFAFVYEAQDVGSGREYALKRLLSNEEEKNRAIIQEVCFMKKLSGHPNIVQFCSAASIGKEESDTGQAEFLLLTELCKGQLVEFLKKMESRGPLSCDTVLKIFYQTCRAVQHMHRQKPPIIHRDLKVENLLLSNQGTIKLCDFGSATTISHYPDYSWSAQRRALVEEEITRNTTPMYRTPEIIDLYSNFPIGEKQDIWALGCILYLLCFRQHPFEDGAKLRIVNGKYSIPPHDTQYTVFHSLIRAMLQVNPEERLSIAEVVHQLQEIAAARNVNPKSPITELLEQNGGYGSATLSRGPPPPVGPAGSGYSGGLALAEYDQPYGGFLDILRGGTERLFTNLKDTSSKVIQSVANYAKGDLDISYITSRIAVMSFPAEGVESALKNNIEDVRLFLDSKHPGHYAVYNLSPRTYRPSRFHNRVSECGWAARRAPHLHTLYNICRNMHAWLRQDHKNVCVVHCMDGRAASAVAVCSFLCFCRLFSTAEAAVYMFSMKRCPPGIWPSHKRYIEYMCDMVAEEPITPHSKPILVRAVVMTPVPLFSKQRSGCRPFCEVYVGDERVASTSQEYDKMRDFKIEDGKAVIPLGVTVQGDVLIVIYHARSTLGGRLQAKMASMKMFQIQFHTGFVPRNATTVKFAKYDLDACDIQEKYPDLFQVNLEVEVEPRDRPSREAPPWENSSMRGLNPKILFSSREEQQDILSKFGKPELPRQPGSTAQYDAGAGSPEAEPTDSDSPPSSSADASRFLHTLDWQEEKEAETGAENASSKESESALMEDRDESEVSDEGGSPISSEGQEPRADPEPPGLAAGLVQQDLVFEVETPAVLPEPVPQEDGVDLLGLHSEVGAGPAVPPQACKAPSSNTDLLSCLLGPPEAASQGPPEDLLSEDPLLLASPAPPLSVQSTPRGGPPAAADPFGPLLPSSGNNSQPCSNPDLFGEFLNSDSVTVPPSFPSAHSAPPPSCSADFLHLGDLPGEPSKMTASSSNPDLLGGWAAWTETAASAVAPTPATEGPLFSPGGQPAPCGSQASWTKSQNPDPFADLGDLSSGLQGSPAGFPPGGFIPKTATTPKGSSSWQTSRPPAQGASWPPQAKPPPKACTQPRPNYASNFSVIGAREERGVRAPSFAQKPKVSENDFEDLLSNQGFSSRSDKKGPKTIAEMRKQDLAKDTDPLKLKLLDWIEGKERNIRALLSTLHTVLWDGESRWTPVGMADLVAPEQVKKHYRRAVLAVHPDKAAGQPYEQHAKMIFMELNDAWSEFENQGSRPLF
Chain of 456 kinases (of these 395 non-mutant kinases) (Homo sapiens, UniProt P54764) (P54764 20-986 limits assumed, stated change not applied): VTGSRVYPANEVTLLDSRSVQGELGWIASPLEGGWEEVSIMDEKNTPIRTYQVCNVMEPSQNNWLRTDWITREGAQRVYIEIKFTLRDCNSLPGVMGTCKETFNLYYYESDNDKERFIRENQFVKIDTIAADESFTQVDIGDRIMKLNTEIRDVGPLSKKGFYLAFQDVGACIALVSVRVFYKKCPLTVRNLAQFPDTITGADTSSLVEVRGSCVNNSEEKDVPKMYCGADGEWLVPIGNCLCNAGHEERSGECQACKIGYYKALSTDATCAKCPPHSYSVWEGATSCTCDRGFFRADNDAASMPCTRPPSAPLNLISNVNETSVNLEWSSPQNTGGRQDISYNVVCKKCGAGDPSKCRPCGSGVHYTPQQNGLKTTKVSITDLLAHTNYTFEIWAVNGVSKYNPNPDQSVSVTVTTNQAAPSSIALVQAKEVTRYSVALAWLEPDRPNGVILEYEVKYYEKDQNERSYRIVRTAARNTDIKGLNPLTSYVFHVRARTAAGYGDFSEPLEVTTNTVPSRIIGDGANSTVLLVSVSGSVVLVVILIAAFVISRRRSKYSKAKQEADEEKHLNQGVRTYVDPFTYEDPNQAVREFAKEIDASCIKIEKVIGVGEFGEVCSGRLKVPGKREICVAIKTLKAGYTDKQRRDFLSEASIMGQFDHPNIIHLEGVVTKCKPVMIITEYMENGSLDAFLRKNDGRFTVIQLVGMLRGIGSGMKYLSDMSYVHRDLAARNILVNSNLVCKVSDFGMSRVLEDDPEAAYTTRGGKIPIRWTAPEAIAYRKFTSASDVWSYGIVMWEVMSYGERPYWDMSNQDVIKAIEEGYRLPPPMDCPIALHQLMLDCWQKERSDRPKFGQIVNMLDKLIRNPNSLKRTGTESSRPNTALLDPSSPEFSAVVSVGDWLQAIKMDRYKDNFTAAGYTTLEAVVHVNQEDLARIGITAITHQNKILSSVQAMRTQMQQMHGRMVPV
Chain of 456 kinases (of these 395 non-mutant kinases) (Mycobacterium tuberculosis, UniProt P9WI81) (P9WI81 2-626 limits assumed, change not shown): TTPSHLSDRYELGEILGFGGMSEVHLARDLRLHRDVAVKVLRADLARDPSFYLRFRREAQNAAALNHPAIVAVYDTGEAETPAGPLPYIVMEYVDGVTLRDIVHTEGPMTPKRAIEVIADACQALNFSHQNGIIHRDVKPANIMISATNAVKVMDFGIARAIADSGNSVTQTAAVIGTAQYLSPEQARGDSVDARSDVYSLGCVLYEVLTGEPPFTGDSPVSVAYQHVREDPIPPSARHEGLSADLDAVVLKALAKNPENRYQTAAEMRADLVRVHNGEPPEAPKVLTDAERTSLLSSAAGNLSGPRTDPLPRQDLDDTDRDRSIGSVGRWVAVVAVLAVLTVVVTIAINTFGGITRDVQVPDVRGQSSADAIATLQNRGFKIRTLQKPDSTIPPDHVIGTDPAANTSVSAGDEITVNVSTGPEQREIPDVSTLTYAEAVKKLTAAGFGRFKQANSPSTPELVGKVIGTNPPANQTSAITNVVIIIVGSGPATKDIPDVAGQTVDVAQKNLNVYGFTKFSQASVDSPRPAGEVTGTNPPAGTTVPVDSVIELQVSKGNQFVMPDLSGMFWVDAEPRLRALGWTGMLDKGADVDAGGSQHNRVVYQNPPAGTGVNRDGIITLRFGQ

## CCc1ccccc1NC(=O)c1c(C)nsc1Nc1cnc2cc(F)ccc2n1 [Example 20, N-(2-Ethylphenyl)-5-[(6-fluoroquinoxalin-2-yl)amino]-3-methyl-1,2-thiazole-4-carboxamide]
[1]
  % Ctrl @ 10 μM: 100 % Ctrl
[2]
  % Ctrl @ 10 μM: 83 % Ctrl
[3]
  % Ctrl @ 10 μM: 90 % Ctrl
[4]
  % Ctrl @ 10 μM: 100 % Ctrl
[5]
  % Ctrl @ 10 μM: 84 % Ctrl
[6]
  % Ctrl @ 10 μM: 82 % Ctrl
[7]
  % Ctrl @ 10 μM: 100 % Ctrl
[8]
  % Ctrl @ 10 μM: 100 % Ctrl
[9]
  % Ctrl @ 10 μM: 100 % Ctrl
[10]
  % Ctrl @ 10 μM: 70 % Ctrl
[11]; TYK2(JH1domain-catalytic)
  % Ctrl @ 10 μM: 100 % Ctrl
[11]; TYK2(JH2domain-pseudokinase)
  % Ctrl @ 10 μM: 100 % Ctrl
[12]
  % Ctrl @ 10 μM: 95 % Ctrl
[13]
  % Ctrl @ 10 μM: 66 % Ctrl
[14]; RSK3(Kin.Dom.1-N-terminal)
  % Ctrl @ 10 μM: 72 % Ctrl
[14]; RSK3(Kin.Dom.2-C-terminal)
  % Ctrl @ 10 μM: 79 % Ctrl
[15]
  % Ctrl @ 10 μM: 96 % Ctrl
[16]
  % Ctrl @ 10 μM: 100 % Ctrl
[17]
  % Ctrl @ 10 μM: 100 % Ctrl
[18]
  % Ctrl @ 10 μM: 95 % Ctrl
[19]
  % Ctrl @ 10 μM: 93 % Ctrl
[20]
  % Ctrl @ 10 μM: 100 % Ctrl
[21]
  % Ctrl @ 10 μM: 100 % Ctrl
[22]
  % Ctrl @ 10 μM: 96 % Ctrl
[23]
  % Ctrl @ 10 μM: 95 % Ctrl
[24]
  % Ctrl @ 10 μM: 94 % Ctrl
[25]
  % Ctrl @ 10 μM: 87 % Ctrl
[26]; RSK1(Kin.Dom.1-N-terminal)
  % Ctrl @ 10 μM: 95 % Ctrl
[26]; RSK1(Kin.Dom.2-C-terminal)
  % Ctrl @ 10 μM: 86 % Ctrl
[27]
  % Ctrl @ 10 μM: 73 % Ctrl
[28]
  % Ctrl @ 10 μM: 100 % Ctrl
[29]
  % Ctrl @ 10 μM: 100 % Ctrl
[30]
  % Ctrl @ 10 μM: 100 % Ctrl
[31]
  % Ctrl @ 10 μM: 96 % Ctrl
